This note sets out measurements from US11661400B2, “NADPH oxidase inhibitors, pharmaceutical composition comprising the same, and application thereof” (TAIWANJ PHARMACEUTICALS CO., LTD., priority 2018, dated 2023).

The inhibition is the share of the control response that was lost under treatment. Lower therefore signals little suppression.

One experiment concerns the target T1, NOX4 (Homo sapiens, UniProt Q9NPH5).
T1 construct: expressed in transfected cells
T1 sequence (Q9NPH5 1-578): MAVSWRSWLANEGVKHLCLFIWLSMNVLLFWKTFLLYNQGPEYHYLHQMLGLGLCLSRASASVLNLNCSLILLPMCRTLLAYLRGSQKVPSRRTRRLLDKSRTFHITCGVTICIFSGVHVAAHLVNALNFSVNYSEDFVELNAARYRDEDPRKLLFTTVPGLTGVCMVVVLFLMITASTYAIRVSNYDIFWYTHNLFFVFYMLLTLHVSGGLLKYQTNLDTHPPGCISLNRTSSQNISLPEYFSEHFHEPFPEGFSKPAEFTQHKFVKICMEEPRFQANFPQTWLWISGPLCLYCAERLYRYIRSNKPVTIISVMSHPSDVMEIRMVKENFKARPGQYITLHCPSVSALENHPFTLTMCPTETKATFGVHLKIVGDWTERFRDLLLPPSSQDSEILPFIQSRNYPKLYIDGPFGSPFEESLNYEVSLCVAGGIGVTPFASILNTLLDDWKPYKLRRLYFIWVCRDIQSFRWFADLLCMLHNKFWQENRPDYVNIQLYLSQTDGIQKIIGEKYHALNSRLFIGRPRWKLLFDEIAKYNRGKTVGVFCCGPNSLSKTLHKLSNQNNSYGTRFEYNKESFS
T1 sequence (P13498 2-195 partner limits assumed): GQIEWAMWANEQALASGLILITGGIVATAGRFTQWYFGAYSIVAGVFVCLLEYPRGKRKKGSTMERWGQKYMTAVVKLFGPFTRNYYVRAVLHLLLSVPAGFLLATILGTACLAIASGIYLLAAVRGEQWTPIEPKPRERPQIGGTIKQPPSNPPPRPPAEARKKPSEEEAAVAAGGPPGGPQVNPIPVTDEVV
As to the kind of experiment: NOX4 HEK293 overexpression cell-based assay (Amplex Red H2O2). Conditions: HEK293 cells stably overexpressing NOX4, DMSO = 0, GKT137831 = 100; for inhibition at 0.1 µM: HEK293, 100 nM; for inhibition at 1 µM: HEK293, 1000 nM. The method, boiled down: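 HEK293 cells stably overexpressing NOX4 (3×10^4) preincubated 30 min at 37° C with compound in KRPG buffer, then mixed with Amplex Red reagent solution (50 μM Amplex Red, 0.1 units/mL HRP) for 90 min at 37° C in the dark. Supernatant fluorescence read at 530/590 nm; DMSO set to 0 and GKT137831 to 100.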

For another experiment, the target named is T2, NOX1 (Homo sapiens, UniProt Q9Y5S8).
T2 construct: endogenous in cells; host or cells: HT29
T2 sequence (Q9Y5S8 1-564): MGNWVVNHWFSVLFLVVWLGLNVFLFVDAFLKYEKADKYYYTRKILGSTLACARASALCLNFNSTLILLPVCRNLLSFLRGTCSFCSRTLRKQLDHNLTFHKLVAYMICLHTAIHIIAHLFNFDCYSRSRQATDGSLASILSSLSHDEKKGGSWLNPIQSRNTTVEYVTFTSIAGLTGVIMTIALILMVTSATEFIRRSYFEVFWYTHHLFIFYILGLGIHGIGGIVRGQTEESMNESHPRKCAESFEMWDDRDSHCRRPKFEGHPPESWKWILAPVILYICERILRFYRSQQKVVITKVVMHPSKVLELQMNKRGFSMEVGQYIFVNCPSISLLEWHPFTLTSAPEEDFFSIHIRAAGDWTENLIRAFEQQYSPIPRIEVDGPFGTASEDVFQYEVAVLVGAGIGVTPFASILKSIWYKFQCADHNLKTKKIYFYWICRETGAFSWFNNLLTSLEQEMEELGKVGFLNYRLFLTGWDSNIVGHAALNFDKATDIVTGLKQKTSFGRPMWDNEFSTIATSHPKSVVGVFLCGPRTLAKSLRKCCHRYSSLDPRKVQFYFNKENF
T2 sequence (P13498 2-195 partner limits assumed): T1 sequence (P13498 2-195 partner limits assumed)
As to the kind of experiment: NOX1 HT29 cell-based assay (luminol/HRP luminescence). To be noted: HT29 cells, DMSO = 0%, GKT137831 = 100%; for inhibition at 0.1 µM / inhibition at 1 µM: HT-29. The method, boiled down:
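HT29 cells (1-2×10^5 per well) pretreated 30-60 min at 37 °C with compound at 100 nM and 1000 nM final, in duplicate, 0.1% DMSO. ROS read as luminol (100 μM)/HRP (0.4 U) luminescence. Activity normalised to DMSO (0%) and GKT137831 (100%).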

For the next experiment, the target named is T3, NOX2 (Homo sapiens, UniProt P04839).
T3 construct: HL-60 cells, rich in NOX2 expression; endogenous in cells; host or cells: DMSO-differentiated HL-60
T3 sequence (P04839 2-570 limits assumed): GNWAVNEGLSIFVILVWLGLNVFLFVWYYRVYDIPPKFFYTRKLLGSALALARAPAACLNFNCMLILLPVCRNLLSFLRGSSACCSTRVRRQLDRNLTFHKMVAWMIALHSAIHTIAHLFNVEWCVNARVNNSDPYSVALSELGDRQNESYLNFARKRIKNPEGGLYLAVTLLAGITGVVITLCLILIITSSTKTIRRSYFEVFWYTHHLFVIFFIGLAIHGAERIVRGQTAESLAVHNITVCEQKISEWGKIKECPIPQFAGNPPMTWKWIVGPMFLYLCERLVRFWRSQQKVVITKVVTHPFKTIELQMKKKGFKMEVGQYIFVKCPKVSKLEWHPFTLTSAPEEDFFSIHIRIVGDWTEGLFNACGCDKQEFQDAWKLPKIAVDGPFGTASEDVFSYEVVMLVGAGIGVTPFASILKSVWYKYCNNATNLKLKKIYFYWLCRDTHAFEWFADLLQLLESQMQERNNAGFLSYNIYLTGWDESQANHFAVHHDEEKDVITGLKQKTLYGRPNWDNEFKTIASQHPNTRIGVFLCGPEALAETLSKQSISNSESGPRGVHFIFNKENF
T3 sequence (P13498 2-195 partner limits assumed): T1 sequence (P13498 2-195 partner limits assumed)
As to the kind of experiment: NOX2 HL60 cell-based assay (PMA oxidative burst, L012 chemiluminescence). Conditions: DMSO-differentiated HL-60 cells, PMA-stimulated; for inhibition at 1 µM: HL-60, 1000 nM; for inhibition at 0.1 µM: HL-60, 100 nM. The method, boiled down:
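DMSO-differentiated HL-60 cells (2.5×10^5/well) with 100 μM L012 preincubated with compound 30-60 min at 37 °C in the dark. Oxidative burst triggered by 10 ng/mL PMA; superoxide chemiluminescence read every 5 min for 60 min.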

Turning to `COc1ccccc1-c1[nH]c2cccc(-c3cccc(N(C)C)c3)c2c(=O)c1O` [Compound 40], the inhibition at 0.1 µM against NOX4 and at NOX1 (100 nM) was not above 19% each time. The figures for the inhibition at 1 µM at NOX4, at NOX1 (1000 nM) and at NOX2 were 50 to 79%, not below 80% and 50 to 79%, respectively. In addition, the “% Inhibition NOX2” value at NOX2 (100 nM) is given as “C (the percent of inhibition of NOX by the compounds ranges from 2000 to 49%)”.

For `COc1ccc(-c2[nH]c3cc(OC)c(OC)cc3c(=O)c2O)cc1` [Compound 2, 3-hydroxy-6,7-dimethoxy-2-(4-methoxyphenyl) quinolin-4(1H)-one 2,2,2-trifluoroacetate], the “% Inhibition NOX4” value at NOX4 (100 nM) is “C (the percent of inhibition of NOX by the compounds ranges from 2000 to 49%)”. Besides, the figures for the inhibition at 1 µM at NOX4, on NOX1 (1000 nM) and at NOX2 were not below 80%, not below 80% and 50 to 79%, respectively. In addition, the inhibition at 0.1 µM at NOX1 (100 nM) was not below 80%; against NOX2, not above 19%.

For the compound `COc1ccc(-c2[nH]c3cc(OC)c(OC)cc3c(=O)c2O)c(OC)c1` [Compound 15], on NOX4 (100 nM), the “% Inhibition NOX4” value is given as “C (the percent of inhibition of NOX by the compounds ranges from 2000 to 49%)”. In addition, the inhibition at 1 µM against NOX4, against NOX1 (1000 nM) and on NOX2 was not below 80% in each case. Also, the inhibition at 0.1 µM at NOX1 (100 nM) was not below 80%. In addition, the “% Inhibition NOX2” value on NOX2 (100 nM) was “C (the percent of inhibition of NOX by the compounds ranges from 2000 to 49%)”.

For the compound `Br.O=c1c(O)c(-c2ccc(O)cc2)[nH]c2cc(O)c(O)cc12` [Compound 3, 3,6,7-trihydroxy-2-(4-hydroxyphenyl) quinolin-4(1H)-one hydrobromide], the inhibition at 0.1 µM at NOX4 is not above 19%. The inhibition at 1 µM on NOX4 was 50 to 79%; against NOX1 (1000 nM) it was not below 80%; at NOX2 it was not below 80%. The “% Inhibition NOX1” value on NOX1 (100 nM) is “C (the percent of inhibition of NOX by the compounds ranges from 2000 to 49%)”. In addition, on NOX2 (100 nM), the “% Inhibition NOX2” value is “C (the percent of inhibition of NOX by the compounds ranges from 2000 to 49%)”.

Regarding `COc1cc2[nH]c(-c3ccccc3OC(F)(F)F)c(O)c(=O)c2cc1OC` [Compound 20], the “% Inhibition NOX4” value was “C (the percent of inhibition of NOX by the compounds ranges from 2000 to 49%)” at NOX4 (100 nM) and “B (the percent of inhibition of NOX by the compounds ranges from 50% o to 79% o)” on NOX4 (1000 nM, 1 µM). Further, the inhibition at 0.1 µM at NOX1 (100 nM) was not below 80%; on NOX2 it was 50 to 79%. Besides, at NOX1 (1000 nM), the inhibition at 1 µM was not below 80%. In addition, the “% Inhibition NOX2” value at NOX2 (1000 nM, 1 µM) was “A (the percent of inhibition of NOX by the compounds is larger than or equals to 80%)”.

With `CCCOc1ccccc1-c1[nH]c2cc(OC)c(OC)cc2c(=O)c1O` [Compound 22], the “% Inhibition NOX4” value on NOX4 (100 nM) was “C (the percent of inhibition of NOX by the compounds ranges from 2000 to 49%)”. Besides, the inhibition at 1 µM against NOX4, against NOX1 (1000 nM) and at NOX2 was not below 80% throughout. Further, on NOX1 (100 nM), the inhibition at 0.1 µM is not below 80%. Further, the “% Inhibition NOX2” value on NOX2 (100 nM) is listed as “C (the percent of inhibition of NOX by the compounds ranges from 2000 to 49%)”.

As for `COc1ccc(C(=O)COC(=O)c2ccc3c(=O)c(O)c(-c4ccc(OC)cc4)[nH]c3c2)cc1` [Compound 32, 2-(4-methoxyphenyl)-2-oxoethyl 3-hydroxy-2-(4-methoxyphenyl)-4-oxo-1,4-dihydroquinoline-7-carboxylate 2,2,2-trifluoroacetate], the “% Inhibition NOX4” value at NOX4 (1000 nM) was “C (the percent of inhibition of NOX by the compounds ranges from 2000 to 49%)”. The inhibition at 0.1 µM on NOX4 and against NOX1 (100 nM) was not above 19% each time. At NOX1 (1000 nM), this compound displayed an inhibition at 1 µM of 50 to 79%. The “% Inhibition NOX2” value at NOX2 (100 nM) and on NOX2 (1000 nM) was “C (the percent of inhibition of NOX by the compounds ranges from 2000 to 49%)” throughout.

For `COc1cc2[nH]c(-c3ccccc3OC)c(O)c(=O)c2cc1OC.Cl` [Compound 51], the “% Inhibition NOX4” value at NOX4 (1000 nM) is listed as “B (the percent of inhibition of NOX by the compounds ranges from 50% o to 79% o)”. Also, the results for the inhibition at 0.1 µM against NOX4 and at NOX1 (100 nM) were not above 19% and not below 80%, respectively. In addition, the inhibition at 1 µM against NOX1 (1000 nM) and on NOX2 was not below 80% each time. On NOX2 (100 nM), the “% Inhibition NOX2” value is listed as “C (the percent of inhibition of NOX by the compounds ranges from 2000 to 49%)”.

`COc1cc2[nH]c(-c3cccs3)c(O)c(=O)c2cc1OC` [Compound 7]: the inhibition at 0.1 µM at NOX4 was 50 to 79%; at NOX1 (100 nM), not below 80%; against NOX2, not above 19%. For the same compound, the inhibition at 1 µM against NOX4 was not below 80%; on NOX1 (1000 nM) it was not below 80%; on NOX2, 50 to 79%.

Take `COc1cc2[nH]c(-c3ccccc3OC(F)(F)F)c(O)c(=O)c2cc1OC.Cl` [Compound 52]: the “% Inhibition NOX4” value at NOX4 (100 nM) is on record as “C (the percent of inhibition of NOX by the compounds ranges from 2000 to 49%)”; on NOX4 (1000 nM), “B (the percent of inhibition of NOX by the compounds ranges from 50% o to 79% o)”. The “% Inhibition NOX1” value on NOX1 (100 nM) and at NOX1 (1000 nM) was “A (the percent of inhibition of NOX by the compounds is larger than or equals to 80%)” in each case. The “% Inhibition NOX2” value was “C (the percent of inhibition of NOX by the compounds ranges from 2000 to 49%)” at NOX2 (100 nM) and “B (the percent of inhibition of NOX by the compounds ranges from 50% o to 79% o)” on NOX2 (1000 nM).
